Reference: article PMC12352620, “Fragment-based discovery of dual ligand pharmacophores for lipid-sensing transcription factors for designed polypharmacology” (RSC Medicinal Chemistry, 2025)

How the values were obtained:
Type in all cases: cell-based
[1] = target: T1, THRα (Homo sapiens, UniProt P10827); test: Gal4-hybrid reporter gene assay THRα; conditions: mean ± S.E.M., n ≥ 3
T1 construct: expressed in transfected cells; host or cells: HEK293T
T1 sequence (P10827 128-410 isoform P10827-2 limits assumed): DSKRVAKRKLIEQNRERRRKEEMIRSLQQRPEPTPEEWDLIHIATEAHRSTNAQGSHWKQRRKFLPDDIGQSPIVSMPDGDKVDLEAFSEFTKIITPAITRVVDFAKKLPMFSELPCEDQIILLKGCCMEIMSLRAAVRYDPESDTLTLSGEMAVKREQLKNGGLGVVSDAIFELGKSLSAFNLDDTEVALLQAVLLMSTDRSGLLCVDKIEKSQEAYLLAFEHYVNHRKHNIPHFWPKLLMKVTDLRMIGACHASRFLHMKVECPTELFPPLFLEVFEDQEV
Protocol: (§1) NR modulation was determined as described previously[45] in Gal4 hybrid reporter gene assays in HEK293T cells (German Collection of Microorganisms and Cell Culture GmbH, DSMZ) using pFR-Luc (Stratagene, La Jolla, CA, USA; reporter), pRL-SV40 (Promega, Madison, WI, USA; internal control) and the hybrid receptor clones pFA-CMV-hTHRα-LBD,[46] pFA-CMV-hPPARγ-LBD,[47] pFA-CMV-hFXR-LBD,[48] and pFA-CMV-hRXRα-LBD,[49] coding for the hinge region and ligand binding domain of the canonical isoform of the respective NR. Cells were cultured in Dulbecco's modified Eagle's medium (DMEM), high glucose supplemented with 10% fetal calf serum (FCS), sodium pyruvate (1 mM), penicillin (100 U mL^−1), and streptomycin (100 μg mL^−1) at 37 °C and 5% CO2 and seeded in 96-well plates (3 × 10^4 cells per well). After 24 h, medium was changed to Opti-MEM without supplements and cells were transiently transfected using Lipofectamine LTX reagent (Invitrogen, Carlsbad, CA, USA) according to the manufacturer's protocol. Five hours after transfection, cells were incubated with the test compounds in Opti-MEM supplemented with penicillin (100 U mL^−1), streptomycin (100 μg mL^−1) and 0.1% DMSO for 16 h before luciferase activity was measured using the Dual-Glo Luciferase Assay System (Promega) according to the manufacturer's protocol on a Tecan Spark luminometer (Tecan Deutschland GmbH, Crailsheim, Germany). Firefly luminescence was divided by Renilla luminescence and multiplied by 1000 resulting in relative light units (RLU) to normalize for transfection efficiency and cell growth. Fold activation was obtained by dividing the mean RLU of test compound by the mean RLU of the untreated control. All samples were tested in at least three biologically independent experiments in duplicates. For dose–response curve fitting and calculation of EC50 values, the equation “[agonist] vs. response − variable slope (four parameters)” was used in GraphPad Prism (version 7.00, GraphPad Software, La Jolla, CA, USA). For selectivity profiling, the hybrid reporter gene assay was performed with Gal4 fusion receptor plasmids for RARα, PPARα, PPARδ, VDR, CAR and LXRα. The following reference agonists were used: triiodothyronine (1 μM, THR), all-trans retinoic acid (1 μM, RAR), GW7647 (1 μM, PPARα), pioglitazone (1 μM, PPARγ), L165041 (1 μM, PPARδ), calcitriol (1 μM, VDR), CITCO (1 μM, CAR), T0901317 (1 μM, LXR), GW4064 (1 μM, FXR), bexarotene (1 μM, RXR).

[2] = target: T2, PPARγ (Homo sapiens, UniProt P37231); test: Gal4-hybrid reporter gene assay PPARγ; conditions: mean ± S.E.M., n ≥ 3
T2 construct: expressed in transfected cells; host or cells: HEK293T
T2 sequence (P37231 238-503 limits assumed): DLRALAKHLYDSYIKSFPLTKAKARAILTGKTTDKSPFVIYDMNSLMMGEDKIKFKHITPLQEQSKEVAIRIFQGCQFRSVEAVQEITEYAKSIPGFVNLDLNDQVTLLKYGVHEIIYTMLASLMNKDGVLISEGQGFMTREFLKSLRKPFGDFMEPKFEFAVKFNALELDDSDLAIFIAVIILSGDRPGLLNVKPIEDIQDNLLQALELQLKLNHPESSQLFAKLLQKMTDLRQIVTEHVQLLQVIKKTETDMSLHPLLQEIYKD
Protocol: as §1

[3] = target: T3, FXR (Homo sapiens, UniProt Q96RI1); test: Gal4-hybrid reporter gene assay FXR; conditions: HEK293T, Gal4-hybrid reporter; Inactive = tested 1–300 μM; mean ± S.E.M., n ≥ 3
T3 construct: expressed in transfected cells; host or cells: HEK293T
T3 sequence (Q96RI1 262-486 limits assumed): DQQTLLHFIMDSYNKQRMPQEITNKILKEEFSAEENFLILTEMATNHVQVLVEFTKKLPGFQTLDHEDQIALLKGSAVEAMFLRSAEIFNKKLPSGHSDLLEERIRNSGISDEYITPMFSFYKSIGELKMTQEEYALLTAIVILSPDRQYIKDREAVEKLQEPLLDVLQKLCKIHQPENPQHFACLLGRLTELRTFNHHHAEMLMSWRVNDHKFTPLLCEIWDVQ
Protocol: as §1

[4] = target: T4, RXRα (Homo sapiens, UniProt P19793); test: Gal4-hybrid reporter gene assay RXRα; conditions: mean ± S.E.M., n ≥ 3
T4 construct: expressed in transfected cells; host or cells: HEK293T
T4 sequence (P19793 227-458 limits assumed): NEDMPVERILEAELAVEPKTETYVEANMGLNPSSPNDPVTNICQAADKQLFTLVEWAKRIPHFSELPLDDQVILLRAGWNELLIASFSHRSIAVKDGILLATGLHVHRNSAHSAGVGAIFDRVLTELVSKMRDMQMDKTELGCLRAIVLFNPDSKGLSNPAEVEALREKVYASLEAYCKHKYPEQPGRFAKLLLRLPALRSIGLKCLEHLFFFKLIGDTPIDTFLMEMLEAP
Protocol: as §1

[5] = HEK293T, Gal4-hybrid reporter, Inactive = tested 1–300 μM
[6] = maximum reporter activation vs DMSO (0.1%) treated cells

EC50 [1, 5]: 92 ± 29 µM | max. fold activation THRα [1, 6]: (2.7 ± 0.3-fold) | EC50 [2, 5]: 255 ± 15 µM | max. fold activation PPARγ [2, 6]: (4.3 ± 0.2-fold) | EC50 FXR [3]: Inactive | EC50 [4, 5]: 134 ± 41 µM | max. fold activation RXRα [4, 6]: (1.9 ± 0.9-fold)
SMILES: C/C(=C\C(=O)O)c1ccc(C(F)(F)F)cc1 [compound 91]
